From ChEMBL document CHEMBL1629667, “Activities of dalbavancin against a worldwide collection of 81,673 gram-positive bacterial isolates” (2009)
Converted amounts (≈) assume the structure as drawn.

Legend:
Staphylococcus aureus [1] = experiment: Antimicrobial activity against Oxacillin-resistant Staphylococcus aureus assessed as percent resistant isolate by broth microdilution method; assay type: functional
Staphylococcus aureus [2] = experiment: Antimicrobial activity against Oxacillin-susceptible Staphylococcus aureus by broth microdilution method; assay type: functional
Staphylococcus aureus [3] = experiment: Antimicrobial activity against Oxacillin-resistant Staphylococcus aureus by broth microdilution method; assay type: functional
Staphylococcus [4] = experiment: Antimicrobial activity against Oxacillin-susceptible coagulase-negative Staphylococcus by broth microdilution method; assay type: functional
Staphylococcus [5] = experiment: Antimicrobial activity against Oxacillin-resistant coagulase-negative Staphylococcus by broth microdilution method; assay type: functional
Streptococcus [6] = experiment: Antimicrobial activity against Beta-hemolytic Streptococcus by broth microdilution method; assay type: functional
Streptococcus [7] = experiment: Antimicrobial activity against viridans group Streptococcus by broth microdilution method; assay type: functional
Staphylococcus aureus [8] = experiment: Antimicrobial activity against Oxacillin-susceptible Staphylococcus aureus assessed as percent susceptible isolate by broth microdilution method; assay type: functional
Staphylococcus aureus [9] = experiment: Antimicrobial activity against Oxacillin-resistant Staphylococcus aureus assessed as percent susceptible isolate by broth microdilution method; assay type: functional
Staphylococcus [10] = experiment: Antimicrobial activity against Oxacillin-susceptible coagulase-negative Staphylococcus assessed as percent susceptible isolate by broth microdilution method; assay type: functional
Staphylococcus [11] = experiment: Antimicrobial activity against Oxacillin-resistant coagulase-negative Staphylococcus assessed as percent susceptible isolate by broth microdilution method; assay type: functional
Enterococcus faecalis [12] = experiment: Antimicrobial activity against Enterococcus faecalis VanA assessed as growth inhibition at =<[…] ug/ml by broth microdilution method; assay type: functional
Enterococcus faecalis [13] = experiment: Antimicrobial activity against Enterococcus faecalis VanA assessed as growth inhibition at 0.25 ug/ml by broth microdilution method; assay type: functional
Enterococcus faecalis [14] = experiment: Antimicrobial activity against Enterococcus faecalis VanA assessed as growth inhibition at 0.5 ug/ml by broth microdilution method; assay type: functional
Enterococcus faecalis [15] = experiment: Antimicrobial activity against Enterococcus faecalis VanA assessed as growth inhibition at 1 ug/ml by broth microdilution method; assay type: functional
Enterococcus faecalis [16] = experiment: Antimicrobial activity against Enterococcus faecalis VanA assessed as growth inhibition at 2 ug/ml by broth microdilution method; assay type: functional
Enterococcus faecalis [17] = experiment: Antimicrobial activity against Enterococcus faecalis VanA assessed as growth inhibition at 4 ug/ml by broth microdilution method; assay type: functional
Enterococcus faecalis [18] = experiment: Antimicrobial activity against Enterococcus faecalis VanB assessed as growth inhibition at =<[…] ug/ml by broth microdilution method; assay type: functional
Enterococcus faecalis [19] = experiment: Antimicrobial activity against Enterococcus faecalis VanB assessed as growth inhibition at 0.06 ug/ml by broth microdilution method; assay type: functional
Enterococcus faecalis [20] = experiment: Antimicrobial activity against Enterococcus faecalis VanB assessed as growth inhibition at 0.5 ug/ml by broth microdilution method; assay type: functional
Enterococcus faecalis [21] = experiment: Antimicrobial activity against Enterococcus faecalis VanB assessed as growth inhibition at 1 ug/ml by broth microdilution method; assay type: functional
Enterococcus faecalis [22] = experiment: Antimicrobial activity against Enterococcus faecalis VanB assessed as growth inhibition at 4 ug/ml by broth microdilution method; assay type: functional
Enterococcus faecium [23] = experiment: Antimicrobial activity against Enterococcus faecium VanA assessed as growth inhibition at 0.12 ug/ml by broth microdilution method; assay type: functional
Enterococcus faecium [24] = experiment: Antimicrobial activity against Enterococcus faecium VanA assessed as growth inhibition at 0.25 ug/ml by broth microdilution method; assay type: functional
Enterococcus faecium [25] = experiment: Antimicrobial activity against Enterococcus faecium VanA assessed as growth inhibition at 0.5 ug/ml by broth microdilution method; assay type: functional
Enterococcus faecium [26] = experiment: Antimicrobial activity against Enterococcus faecium VanA assessed as growth inhibition at 1 ug/ml by broth microdilution method; assay type: functional
Enterococcus faecium [27] = experiment: Antimicrobial activity against Enterococcus faecium VanA assessed as growth inhibition at 2 ug/ml by broth microdilution method; assay type: functional
Enterococcus faecium [28] = experiment: Antimicrobial activity against Enterococcus faecium VanA assessed as growth inhibition at 4 ug/ml by broth microdilution method; assay type: functional
Enterococcus faecium [29] = experiment: Antimicrobial activity against Enterococcus faecium VanB assessed as growth inhibition at =<[…] ug/ml by broth microdilution method; assay type: functional
Enterococcus faecium [30] = experiment: Antimicrobial activity against Enterococcus faecium VanB assessed as growth inhibition at 0.06 ug/ml by broth microdilution method; assay type: functional
Enterococcus faecium [31] = experiment: Antimicrobial activity against Enterococcus faecium VanB assessed as growth inhibition at 0.12 ug/ml by broth microdilution method; assay type: functional
Enterococcus faecium [32] = experiment: Antimicrobial activity against Enterococcus faecium VanB assessed as growth inhibition at 0.25 ug/ml by broth microdilution method; assay type: functional
Enterococcus faecium [33] = experiment: Antimicrobial activity against Enterococcus faecium VanB assessed as growth inhibition at 0.5 ug/ml by broth microdilution method; assay type: functional
Enterococcus faecium [34] = experiment: Antimicrobial activity against Enterococcus faecium VanB assessed as growth inhibition at 1 ug/ml by broth microdilution method; assay type: functional
Enterococcus faecium [35] = experiment: Antimicrobial activity against Enterococcus faecium VanB assessed as growth inhibition at 2 ug/ml by broth microdilution method; assay type: functional
Enterococcus faecium [36] = experiment: Antimicrobial activity against Enterococcus faecium VanB assessed as growth inhibition at 4 ug/ml by broth microdilution method; assay type: functional
[37] = system: Streptococcus sp. 'group A'; experiment: Antimicrobial activity against Beta-hemolytic Streptococcus sp. 'group A' assessed as growth inhibition at =<[…] ug/ml by broth microdilution method; assay type: functional
[38] = system: Streptococcus sp. 'group A'; experiment: Antimicrobial activity against Beta-hemolytic Streptococcus sp. 'group A' assessed as growth inhibition at 0.06 ug/ml by broth microdilution method; assay type: functional
[39] = system: Streptococcus sp. 'group A'; experiment: Antimicrobial activity against Beta-hemolytic Streptococcus sp. 'group A' assessed as growth inhibition at 0.25 ug/ml by broth microdilution method; assay type: functional
[40] = system: Streptococcus sp. 'group B'; experiment: Antimicrobial activity against Beta-hemolytic Streptococcus sp. 'group B' assessed as growth inhibition at 0.06 ug/ml by broth microdilution method; assay type: functional
[41] = Antimicrobial activity against Beta-hemolytic Streptococcus sp. 'group C' assessed as growth inhibition at =<[…] ug/ml by broth microdilution method; assay type: functional
[42] = Antimicrobial activity against Beta-hemolytic Streptococcus sp. 'group C' assessed as growth inhibition at 0.06 ug/ml by broth microdilution method; assay type: functional
[43] = Antimicrobial activity against Beta-hemolytic Streptococcus sp. 'group G' assessed as growth inhibition at =<[…] ug/ml by broth microdilution method; assay type: functional
[44] = Antimicrobial activity against Beta-hemolytic Streptococcus sp. 'group G' assessed as growth inhibition at 0.12 ug/ml by broth microdilution method; assay type: functional
Streptococcus sp. [45] = experiment: Antimicrobial activity against Beta-hemolytic Streptococcus sp. […]; assay type: functional, Group F
Streptococcus sp. [46] = experiment: Antimicrobial activity against Beta-hemolytic Streptococcus sp. Group F assessed as growth inhibition at 0.06 ug/ml by broth microdilution method; assay type: functional
Streptococcus sp. [47] = experiment: Antimicrobial activity against Beta-hemolytic Streptococcus sp. Group F assessed as growth inhibition at 0.12 ug/ml by broth microdilution method; assay type: functional
Staphylococcus [48] = experiment: Antimicrobial activity against Oxacillin-susceptible coagulase-negative Staphylococcus assessed as percent resistant isolate by broth microdilution method; assay type: functional

Work on CN[C@H](CC(C)C)C(=O)N[C@H]1C(=O)N[C@@H](CC(N)=O)C(=O)N[C@H]2C(=O)N[C@H]3C(=O)N[C@H](C(=O)N[C@H](C(=O)O)c4cc(O)cc(O)c4-c4cc3ccc4O)[C@H](O)c3ccc(c(Cl)c3)Oc3cc2cc(c3O[C@@H]2O[C@H](CO)[C@@H](O)[C@H](O)[C@H]2O[C@H]2C[C@](C)(N)[C@H](O)[C@H](C)O2)Oc2ccc(cc2Cl)[C@H]1O [VANCOMYCIN] yielded an Activity (Staphylococcus aureus [1]) of 0%, an MIC50 (Staphylococcus aureus [2]) of 1 µg/mL (≈ 0.69 µM) and an MIC90 (Staphylococcus aureus [2]) of 1 µg/mL (≈ 0.69 µM). It also gave an MIC50 (Staphylococcus aureus [3]) of 1 µg/mL (≈ 0.69 µM), an MIC90 (Staphylococcus aureus [3]) of 1 µg/mL (≈ 0.69 µM) and an MIC50 (Staphylococcus [4]) of 1 µg/mL (≈ 0.69 µM). The MIC90 (Staphylococcus [4]) was 2 µg/mL (≈ 1.38 µM), the MIC50 (Staphylococcus [5]) was 1 µg/mL (≈ 0.69 µM) and the MIC90 (Staphylococcus [5]) was over 2 µg/mL. For the same molecule, the MIC50 (Streptococcus [6]) was 0.5 µg/mL (≈ 0.345 µM), the MIC90 (Streptococcus [6]) was 0.5 µg/mL (≈ 0.345 µM) and the MIC50 (Streptococcus [7]) was 0.5 µg/mL (≈ 0.345 µM). The MIC90 (Streptococcus [7]) was 1 µg/mL (≈ 0.69 µM), the Activity (Staphylococcus aureus [8]) was over 99.9% and the Activity (Staphylococcus aureus [9]) was over 99.9%. For the same molecule, the Activity (Staphylococcus [10]) was 100%, the Activity (Staphylococcus [11]) was over 99.9% and the “inhibition (INH)” value (Enterococcus faecalis [12]) was 0.4%. The inhibition at 0.25 µg/mL (Enterococcus faecalis [13]) was 3.9%, the inhibition at 0.5 µg/mL (Enterococcus faecalis [14]) was 4.3% and the inhibition at 1 µg/mL (Enterococcus faecalis [15]) was 4.3%. The inhibition at 2 µg/mL (Enterococcus faecalis [16]) was 7.4%, the inhibition at 4 µg/mL (Enterococcus faecalis [17]) was 14.8% and the “inhibition (INH)” value (Enterococcus faecalis [18]) was 9.5%. The inhibition at 0.06 µg/mL (Enterococcus faecalis [19]) was 33.3%, the inhibition at 0.5 µg/mL (Enterococcus faecalis [20]) was 75% and the inhibition at 1 µg/mL (Enterococcus faecalis [21]) was 78.6%. The inhibition at 4 µg/mL (Enterococcus faecalis [22]) was 91.7%, the inhibition at 0.12 µg/mL (Enterococcus faecium [23]) was 1.2% and the inhibition at 0.25 µg/mL (Enterococcus faecium [24]) was 3.1%. The inhibition at 0.5 µg/mL (Enterococcus faecium [25]) was 6.6%, the inhibition at 1 µg/mL (Enterococcus faecium [26]) was 11.5% and the inhibition at 2 µg/mL (Enterococcus faecium [27]) was 18.3%. The inhibition at 4 µg/mL (Enterococcus faecium [28]) was 33.1%, the “inhibition (INH)” value (Enterococcus faecium [29]) was 26.1% and the inhibition at 0.06 µg/mL (Enterococcus faecium [30]) was 56%. The inhibition at 0.12 µg/mL (Enterococcus faecium [31]) was 71.6%, the inhibition at 0.25 µg/mL (Enterococcus faecium [32]) was 77.6% and the inhibition at 0.5 µg/mL (Enterococcus faecium [33]) was 85.1%. For the same molecule, the inhibition at 1 µg/mL (Enterococcus faecium [34]) was 90.3%, the inhibition at 2 µg/mL (Enterococcus faecium [35]) was 94% and the inhibition at 4 µg/mL (Enterococcus faecium [36]) was 97.8%. The “inhibition (INH)” value [37] was 98.8%, the inhibition at 0.06 µg/mL [38] was 99.9% and the inhibition at 0.25 µg/mL [39] was 100%. The inhibition at 0.06 µg/mL [40] was 98%, the “inhibition (INH)” value [41] was 99.4% and the inhibition at 0.06 µg/mL [42] was 100%. For the same molecule, the “inhibition (INH)” value [43] was 95.6%, the inhibition at 0.12 µg/mL [44] was 100% and the “inhibition (INH)” value (Streptococcus sp. [45]) was 97.1%. It also gave an inhibition at 0.06 µg/mL (Streptococcus sp. [46]) of 97.1%, an inhibition at 0.12 µg/mL (Streptococcus sp. [47]) of 100% and an Activity (Staphylococcus [48]) of 0%.
